From patent publication US5955485A, “Use of fused benzothiazoles as neuroprotectants” (Janssen Pharmaceutica, N.V., priority 1995, dated 1999)
Where “and” joins values, the source holds several entries; their conditions need not be identical. Equal entries are not always repeated. Where two headings read alike, the source gives them in different places.

Key:
[1] = test system: Human fibroblasts [strain NS]; experiment: Protection of human fibroblasts against glutathione depletion (survival in cystine/methionine deficient EMEM, 48 hr); assay type: cell-based; conditions: Fibroblast, read-out: EC90 (concentration at which more than 90% of the fibroblasts survive 48 hours after treatment)
Method: Human fibroblasts [strain NS] were cultured in cystine/methionine deficient EMEM for 48 hr. In control cultures not receiving any treatment, all cells became necrotic. Cell death was scored by phase contrast microscopy. Table 1 summarizes the EC90 values observed with the compounds of formula (I), i.e. the concentration at which more than 90% of the fibroblasts survive 48 hours after treatment with a compound of formula (I).

[2] = test system: primary neuronal (embryonic hippocampal) cultures; experiment: Survival-rescue of primary embryonic hippocampal cultures in vitE depleted medium (cytoplasmic LDH activity); assay type: cell-based, rat; conditions: for EC50: Rattus norvegicus, mean ± SD (number of dose responses), 50% of survival in vitE supplemented medium
Method: Primary embryonic hippocampal cultures were prepared essentially as described previously (Pauwels, P, Van Aschouw, H. P., Peeters, L., Moeremans, M., Leysen, J. E. 1992. Chronic treatment with sabeluzole protects cultured rat brain neurons from the neurotoxic effects of excitatory amino acids. Synapse, 12:271-280). Hippocampal formations of rats at embryonic day 17 were dissected and dissociated in 0.05% trypsin, 0.1 mg/ml DNase I in DMEM (Dulbecco Modified Eagle Medium). Heat-inactivated horse serum (HS) was added to a concentration of 4%, and the cells were centrifuged, washed with DMEM, and resuspended in DMEM/Ham's F12 (3:1) containing 10% HS. The cells were plated at a density of 4×10^5 cells/cm^2 in poly L-lysine (0.001%) pre-coated multiwell-24 plates. On day 1 in culture, the medium was changed to chemically defined CDM-R12 medium (DMEM-HEPES/Ham's F12 (3:1) containing 0.26% bovine serum albumin, 30 nM sodium selenite, 3 nM 3,3',5 triiodo-L-thyronine, 0.35 μM retinol, 0.3 μM retinol acetate, 2.3 μM DL-a-tocopherol, 2.1 μM DL-α-tocopherol acetate, […] linolenic acid, 3.6 μM linoleic acid, 0.125% human transferrin, 20 nM progesterone, 57.7 nM corticosterone, 49 U/l insulin, 0.4 μM biotin, 10 μM L-carnitine, 83 μM D(+)-galactose, 3.3 μM glutathione, 10 μM ethanolamine, 0.1 mM putrescine; Romijn, H. J., van Huizen, F., Wolters, P. S. 1984. Towards an improved serum-free, chemically defined medium for long-term culturing of cerebral cortex tissue. Neurosci. Behav. Rev., 8:301-334), either with (control) or without DL-α-tocopherol (VitE) and DL-α-tocopherol acetate, in the presence or absence of test compound. […] Addition of compounds could rescue the cultures. Culture survival was measured by means of cytoplasmic LDH activity. The EC50 for survival-rescue in vitE depleted cultures refers to the concentration of the compound required to restore culture survival to 50% of the survival seen for the culture grown in vitE supplemented medium. Seven concentrations of each compound were tested in triplicate, the number of independent experiments is indicated in the table, and the mean EC50 -value ± SD was calculated (Table 2).
Primary neuronal cultures depend on the presence of the antioxidant vitE in the culture medium for survival in vitro. When vitE depleted medium is used to grow the cultures, survival drops to ±20% of control. Compounds with antioxidative properties are able to complement the lack of vitE, and as such can when added to the culture medium, rescue vitE devoid cultures. Several derivatives of formula (I) were tested at 10^-7 M and 10^-6 M in the vitE depletion test on primary neuronal cultures, and were all able to rescue survival of vitE depleted cultures to a certain extent (Table 2).

C6 glioma cells [3] = experiment: Glutathione depletion-induced intracellular peroxides in C6 glioma cells (C-DCDHF fluorescence); assay type: cell-based; conditions: for Level of intracellular peroxides: 1 μM compound + glutamate 10 mM, n ≥ 3 (Table 5); for Level of intracellular peroxides / Intracellular peroxides: mean ± SEM; for Intracellular peroxides: glutamate 10 mM alone, n = 5 (Table 3)
Method: Fluorescence measurement of intracellular peroxides: Formation of intracellular peroxides was detected using 6-carboxy-2',7'-dichlorodihydrofluorescin diacetate, di(acetoxymethyl ester) (C-DCDHF, Molecular Probes). C-DCDHF was dissolved in DMSO at a concentration of 10 mM and stored at -70° C. under nitrogen. After exposure of the culture to 10 mM glutamate for 14~20 hr, the cells were loaded with 100 μM fluorophore for one hour at 37° C. Medium was aspirated off, PBS was added to the cells, and plates were read in a Cytofluor II micro plate fluorescence reader (PerSeptive Biosystems).Excitation and emission wavelength were selected with a 485/530 nm filter pair. Fluorescence intensity, expressed in relative fluorescence units (rfu)/μg cellular protein was used as index of intracellular peroxides.

C6 glioma cells [4] = experiment: Glutathione depletion-induced cell toxicity in C6 glioma cells (LDH release; protection); conditions: for IC50 / cytotoxicity at 10000 µM: C6 glioma; for IC50: read-out: Protection IC50; for cytotoxicity at 10000 µM: Rattus norvegicus
Method: Cultures were maintained at 37° C. in an air/5~10% CO2, water saturated atmosphere.
After 8-24 hr, the cultures were switched to culture medium in the absence or presence of the GSH depleting compound glutamate (10 mM).

C6 glioma cells [5] = experiment: GSH content in C6 glioma cell culture; assay type: cell-based; conditions: for GSH level: mean ± SEM, n = 3
Text: The GSH content was deduced from a standard curve ranging from 0.2 to 2 nmol commercial GSH per test (ΔA/min plotted versus concentration).

Plasma levels = assay type: in vivo

Compound	EC90 [1] [nM]	EC50 [2] [nM]	Level of intracellular peroxides (C6 glioma cells [3]) [rfu/μg protein]	IC50 (C6 glioma cells [4]) [nM]	further results
CCCNc1ccc2c(c1)SC1=NCCN12 [Compound 1]	40000				
CNc1ccc2c(c1)SC1=NCCN12 [Compound 2]	200000				
c1cc2c(cc1NC1CCCCC1)SC1=NCCN12 [Compound 3]	40000	120 ± 71	22 ± 2	18 ± 3	
c1cc2c(cc1NC1CCCC1)SC1=NCCN12 [Compound 4]	40000	177 ± 59	18 ± 2	29 ± 7	
CC(C)Nc1ccc2c(c1)SC1=NCCN12 [Compound 5]	40000				
CN(C)c1ccc2c(c1)SC1=NCCN12 [Compound 6]	40000				
c1cc2c(cc1NC1CCCCCC1)SC1=NCCN12 [Compound 7, N-cycloheptyl-2,3dihydro-imidazo[2,1-b]benzothiazol-7-amine]	320	25 ± 12		9	complete rescue of primary neuronal cultures grown in VitE depleted medium (concentration) ([2]; VitE depleted medium): 10^-7 M; potency rank in vitE depletion test ([2]; in words): the most potent compound; antioxidative activity relative to vitE ([2]; vitE depletion test, estimated): about 100 times more potent than vitE; GSH level relative to solvent control (C6 glioma cells [5]; 1 μM compound + glutamate 10 mM, in words): about one third of the solvent control level; GSH level (C6 glioma cells [5]; 1 μM compound + glutamate 10 mM): 242 ± 54 pmol/well; IC50 (C6 glioma cells [3]; individual values of 2 experiments, read-out: Inhibition of intracellular peroxides IC50): 28 nM and 71 nM; plasma levels upon reiterated or chronic administration (Plasma levels; reiterated or chronic administration, in words): progressively increase until a steady state is reached; period of effective plasma levels (Plasma levels; two doses (b.i.d.)): 24 h; protection from cell death (C6 glioma cells [4]; 1 μM, glutamate 10 mM, in words): fully protected
CCNc1ccc2c(c1)SC1=NCCN12 [Compound 8]	200000				
CCC(CC)Nc1ccc2c(c1)SC1=NCCN12 [Compound 9]	40000				
CCCCNc1ccc2c(c1)SC1=NCCN12 [Compound 10]	200000				
CCC(C)Nc1ccc2c(c1)SC1=NCCN12 (stereo not shown) [Compound 11]	40000	224			
CCCC(C)Nc1ccc2c(c1)SC1=NCCN12 (stereo not shown) [Compound 12]	40000	370 ± 169	24 ± 1	29 ± 14	
CCCCC(C)Nc1ccc2c(c1)SC1=NCCN12 (stereo not shown) [Compound 13]	8000	45	19 ± 1	10 ± 5	
CC(C)(C)CNc1ccc2c(c1)SC1=NCCN12 [Compound 14]	8000				
CCCN(CCC)c1ccc2c(c1)SC1=NCCN12 [Compound 15]	40000				
CCCCCCNc1ccc2c(c1)SC1=NCCN12 [Compound 16, N-hexyl-2,3-dihydro-imidazo[2,1-b]benzothiazol-7-amine]	1600	41 ± 18	21 ± 1	5 ± 1	
c1cc2c(cc1NC1C3CC4CC(C3)CC1C4)SC1=NCCN12 (stereo not shown) [Compound 17]		47 ± 19	19 ± 1	12 ± 2	
Cc1cc(NC2CCCC2)c(C(C)C)c2c1N1CCN=C1S2 [Compound 18]		126	19 ± 1	25 ± 14	
N[C@@H](CCC(=O)O)C(=O)O [Glutamate, glutamate, reference compound]					GSH level (C6 glioma cells [5]; glutamate 10 mM alone): 277 ± 24 pmol/well; GSH level (C6 glioma cells [5]; glutamate 10 mM alone, listed as glutamate): 277 pmol/well; reduction in intracellular GSH level versus control (C6 glioma cells [5]; glutamate 10 mM, 6~7 hr): ~3 fold; increase in toxic intracellular peroxides (C6 glioma cells [3]; glutamate 10 mM): ~3 fold; Intracellular peroxides (C6 glioma cells [3]): 205 ± 35 rfu/μg protein; Intracellular peroxides (C6 glioma cells [3]; listed as glutamate): 205 rfu/μg protein; cytotoxicity at 10000 µM (C6 glioma cells [4]; 48 h, read-out: LDH release, % of total): 78 ± 7%; cytotoxicity at 10000 µM (C6 glioma cells [4]; read-out: cell death): ~78%
C[C@]12N[C@H](Cc3ccccc31)c1ccccc12 [MK801, reference compound]					prevention of LDH release (C6 glioma cells [4]; NMDA antagonist, data not shown, in words): not prevented
